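Interpolation was linear, between the two tested concentrations surrounding the appropriate level; five concentrations were tested over 48 hours in 96-well plates. Here, GI50 denotes the concentration required for 50% inhibition of growth.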 The source made the active and inactive calls. Cut-off read from the data, not from the text of the source: active = GI50 up to about 1.1 µM and inactive = higher.
What was measured:
Test in all cases: DTP human tumour cell line panel, 48 h
[1] = tested on: CAKI-1
[2] = tested on: HCT-116
[3] = tested on: KM12
[4] = tested on: Malme-3M
[5] = tested on: NCI-H23
[6] = tested on: NCI-H522
[7] = tested on: SF-539
[8] = tested on: SK-OV-3
[9] = tested on: SN12C
[10] = tested on: UACC-257
[11] = tested on: UACC-62
[12] = tested on: CCRF-CEM
[13] = tested on: HCC 2998
[14] = tested on: K562
[15] = tested on: SNB-75

Compound | GI50 [1] | GI50 [2] | GI50 [3] | GI50 [4] | GI50 [5] | GI50 [6] | GI50 [7] | GI50 [8] | GI50 [9] | GI50 [10] | GI50 [11] | GI50 [12] | GI50 [13] | GI50 [14] | GI50 [15]
O=C(Nc1ccc(Cl)cc1Cl)C(=O)C(C(=O)c1ccc2ccccc2c1)C1OC(=O)c2ccccc21 (configuration not stated) | 13.5 µM (inactive) | 5.56 µM (inactive) | 15 µM (inactive) | > 10 µM (inactive) | 2.92 µM (inactive) | > 10 µM (inactive) | 2.68 µM (inactive) | 26.8 µM (inactive) | 11.7 µM (inactive) | 12.6 µM (inactive) | 9.79 µM (inactive) |  |  |  | 
Cc1cnoc1/N=C1\C=C(Nc2oncc2C)C(=O)c2ccccc21 | > 100 µM (inactive) | > 100 µM (inactive) | > 100 µM (inactive) | > 100 µM (inactive) | 60.5 µM (inactive) |  | > 100 µM (inactive) | > 100 µM (inactive) | > 100 µM (inactive) | 65.6 µM (inactive) | 48.3 µM (inactive) | > 100 µM (inactive) | > 100 µM (inactive) | 25.5 µM (inactive) | > 100 µM (inactive)
CC(CN(C)C)/C(=N\Nc1ccccc1)c1ccccc1 (configuration not stated) |  | 0.415 µM (active) | 0.0826 µM (active) | 10.7 µM (inactive) | 3.4 µM (inactive) | 0.889 µM (active) | 0.272 µM (active) | 15.6 µM (inactive) | 3.19 µM (inactive) | 2.12 µM (inactive) | 0.0755 µM (active) | 0.211 µM (active) |  | 0.112 µM (active) | 13 µM (inactive)
COC(=O)C1=C(c2ccc3c(c2)OCO3)O[C@H](c2cc(OC)c(OC)c(OC)c2)[C@H]1COC(C)=O | 1.95 µM (inactive) | 4.55 µM (inactive) | 4.31 µM (inactive) | 1.99 µM (inactive) | 2.25 µM (inactive) |  | 1.99 µM (inactive) | 1.14 µM (inactive) | 4.34 µM (inactive) | 4.4 µM (inactive) | 3.32 µM (inactive) | 7.87 µM (inactive) | 1.74 µM (inactive) | 3.22 µM (inactive) | 4.06 µM (inactive)
O=C(Nc1nc2ccc([N+](=O)[O-])cc2s1)C(=O)C(C(=O)c1ccncc1)C1OC(=O)c2ccccc21 (configuration not stated) | > 100 µM (inactive) | > 100 µM (inactive) | > 100 µM (inactive) | > 100 µM (inactive) | > 100 µM (inactive) |  |  |  | > 100 µM (inactive) | > 100 µM (inactive) | > 100 µM (inactive) | > 100 µM (inactive) | > 100 µM (inactive) | > 100 µM (inactive) | 33.9 µM (inactive)
COc1ccc(S(=O)(=O)N/N=C\c2cc([N+](=O)[O-])cc(I)c2O)c(OC)c1OC | 30.1 µM (inactive) |  | 27.8 µM (inactive) | 27.7 µM (inactive) | 30.5 µM (inactive) |  |  | 25 µM (inactive) | 31.5 µM (inactive) | 26.7 µM (inactive) | 21.9 µM (inactive) | 24.3 µM (inactive) | 31.4 µM (inactive) | 31.6 µM (inactive) | 24.7 µM (inactive)
Cc1ccc(S(=O)(=O)CC(=O)CC(=O)C(=O)Nc2cccc(C(F)(F)F)c2)cc1 | > 100 µM (inactive) | 44.4 µM (inactive) | > 100 µM (inactive) | 81.3 µM (inactive) | > 100 µM (inactive) | > 100 µM (inactive) | > 100 µM (inactive) | > 100 µM (inactive) | > 100 µM (inactive) | > 100 µM (inactive) | > 100 µM (inactive) | > 100 µM (inactive) |  | > 100 µM (inactive) | 47.6 µM (inactive)
CCN(CC)CCOC(=O)/C(=C/c1ccc(OC)cc1)c1cc(OC)c(OC)c(OC)c1 | 4.42 µM (inactive) | 5.45 µM (inactive) | 3.77 µM (inactive) | 10.1 µM (inactive) |  | 2.75 µM (inactive) | 3.28 µM (inactive) |  | 16.1 µM (inactive) | 5.46 µM (inactive) | 3.71 µM (inactive) | 18.8 µM (inactive) |  | 3.29 µM (inactive) | 0.91 µM (active)

Reference: ChEMBL document CHEMBL1201862, “PubChem BioAssay data set” (2004)
